{"source": "paper PMC11927431", "about": "(eGastroenterology, 2025)", "key": {"CB1R": {"target": "CB1R (Mus musculus, UniProt P47746)", "sequence (P47746 whole entry)": "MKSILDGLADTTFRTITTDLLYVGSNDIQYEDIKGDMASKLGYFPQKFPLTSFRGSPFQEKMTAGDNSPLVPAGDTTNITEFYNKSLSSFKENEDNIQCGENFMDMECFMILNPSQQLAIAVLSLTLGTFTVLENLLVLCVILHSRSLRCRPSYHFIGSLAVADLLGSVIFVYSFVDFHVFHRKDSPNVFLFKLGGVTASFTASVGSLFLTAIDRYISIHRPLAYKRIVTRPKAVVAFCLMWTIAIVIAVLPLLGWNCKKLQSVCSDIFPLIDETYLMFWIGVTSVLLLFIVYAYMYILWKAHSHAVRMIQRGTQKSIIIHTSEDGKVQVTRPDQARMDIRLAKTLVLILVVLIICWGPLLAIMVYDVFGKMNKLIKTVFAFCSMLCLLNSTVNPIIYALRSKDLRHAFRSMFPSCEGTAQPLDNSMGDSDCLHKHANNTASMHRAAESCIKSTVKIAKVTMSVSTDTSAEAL", "test": "Radioligand saturation binding assay on brain membrane homogenates", "details": "read-out: Kd ± S.E.M., 30°C, 60 min"}, "[1]": {"details": "3 mg/kg; cited from earlier work"}}, "note": "Read-outs that look alike come from different tables or passages of the source.", "data": [{"compound": "CCCCCCC(C)(C)c1ccc([C@@H]2C[C@H](O)CC[C@H]2CCCO)c(O)c1", "note": "[[^3H]-CP55.940]", "values": [{"measurement": "Kd", "setting": "CB1R; CB1^IEC-/- mouse brain membrane homogenate", "value": 1.7, "unit": "nM"}, {"measurement": "Kd", "setting": "CB1R; CB1^f/f mouse brain membrane homogenate", "value": 1.68, "unit": "nM"}]}, {"compound": "Cc1c(C(=O)NN2CCCCC2)nn(-c2ccc(Cl)cc2Cl)c1-c1ccc(Cl)cc1", "note": "[rimonabant]", "values": [{"measurement": "Anxiogenic behaviour", "setting": "[1]", "value": "induced significant anxiety"}]}]}
